The experiment deals with HCV Replicon IB. In words: HCV replicon assay in Huh-7 cells, genotype 1b (Rluc luciferase readout). In kind it is cell-based, hepatitis C virus. Conditions: for inhibition at 10 µM: 72 h, 1b-Rluc replicon, read-out: Inhibition @ 10 uM in 1b-Rluc; for EC50: read-out: EC50_HCV1B_.
Setting [1] is: Hepatitis C virus, Huh-7 cells, 3 days.
The mark [2] stands for this setting: Hepatitis C virus, Huh-7, 72 h, HCV1B replicon, Huh-7 cells, 3 days.
The mark [3] stands for this setting: HCV1B replicon, Huh-7 cells, 3 days.

Read-outs that look alike come from different tables or passages of the source.

By inhibition is commonly meant the share of the control response that was lost under treatment. Regarding `COCCCNc1nnc(-c2cc(C)c3cc(OC)cc(C(F)(F)F)c3n2)o1` [Compound 274], the inhibition at 10 µM under setting [1] worked out at 99.4%.
Regarding `Cc1cc(-c2nnc(NCC3CNC(=O)O3)o2)nc2c(C(C)(C)C)cc(C3CC3)cc12` (centres unmarked) [Compound 419], under setting [2], the EC50 was 43.9 nM.
Turning to `Cc1cc(-c2nnc(NC(C)(C)CO)o2)nc2c(C(F)(F)F)cc(C3CC3)cc12` [Compound 261], the inhibition at 10 µM under setting [1] was 99.2%.
The same measure, in the same setting: for `Cc1cc(C(=O)NCC2CCCCN2)nc2c(C(F)(F)F)cc(C3CCCC3)cc12` (centres unmarked) [Compound 151] the value was 99.6%.
Consider `CCC(C)(O)c1cc(C2CC2)cc2c(C)cc(-c3nnc(NCC4OCCO4)o3)nc12` (centres unmarked) [Compound 543], for which the EC50 under setting [2] was 155 nM.
Same read-out and setting: the result for `Cc1cc(-c2nnc(NCC3OCCO3)o2)nc2c(C(C)(C)C)cc(OC(F)F)cc12` [Compound 524] reads 1.25 nM; that for `CC(C)(C)c1cc(C2CC2)cc2c(N)cc(-c3nnc(NCC4OCCO4)o3)nc12` [Compound 342], 2.11 nM.
For the compound `CC(C)(C)c1cc(C2CC2)cc2c(N)cc(C(=O)NCC3CS(=O)(=O)CCN3)nc12` (centres unmarked) [Compound 334], under setting [3], the EC50 was 1.71 nM.
For the compound `CCCCCCNc1nnc(-c2cc(C)c3cc(C4CC4)cc(C(F)(F)F)c3n2)o1` [Compound 389], under setting [2], the EC50 was found to be 145 nM.
Same read-out and setting: for `Cc1cc(-c2nnc(N[C@H]3C[C@](O)(CF)C3)o2)nc2c(C(C)(C)C)cc(OC(F)F)cc12` [Compound 527] the value was 0.81 nM; for `Cc1cc(-c2nnc(NC3CC4(COCO4)C3)o2)nc2c(C(C)(C)C)cc(C3CC3)cc12` (centres unmarked) [Compound 515], 15.9 nM.
Consider `Cc1cc(C(=O)NCCC2CCCCN2)nc2c(C(F)(F)F)cc(C3CC3)cc12` (centres unmarked) [Compound 124], for which the inhibition at 10 µM under setting [1] was determined as 99.2%.
Same read-out and setting: the result for `Cc1cc(-c2nnc(NCc3ccccn3)o2)nc2c(C(F)(F)F)cc(C3CC3)cc12` [Compound 254] reads 99.7%.
Regarding `Nc1nnc(-c2cc(N)c3cc(C4CC4)cc(C(F)(F)F)c3n2)s1` [Compound 373], the EC50 under setting [2] is 65 nM.
For the compound `Nc1nc(C(=O)NCc2cnccn2)nc2c(C(F)(F)F)cc(-c3ccccc3)cc12` [Compound 435], the EC50 under setting [2] worked out at 7.84 nM.
The same measure, in the same setting: for `Cc1cc(-c2nnc(NC3CC(C)(OCS(C)(=O)=O)C3)o2)nc2c(C(C)(C)C)cc(OCC(F)(F)F)cc12` (centres unmarked) [Compound 495] the value was 38.4 nM.
Take `CC(=O)N1CCOCC1CNC(=O)c1cc(C)c2cc(C3CC3)cc(C(F)(F)F)c2n1` (centres unmarked) [Compound 101]: the inhibition at 10 µM under setting [1] turned out to be 73.3%.
Regarding `Cc1cc(-c2nnc(NCCO)s2)nc2c(C(F)(F)F)cc(C3CC3)cc12` [Compound 308], the EC50 under setting [2] is 66 nM.
Regarding `CCCCN(C)c1cc(C(F)(F)F)c2nc(C(=O)NCc3ccccn3)cc(C)c2c1` [Compound 176], under setting [1], the inhibition at 10 µM is 80.4%.
For `Cc1cc(C(=O)NC[C@@H]2CSCN2)nc2c(C(C)(C)C)cc(C3CC3)cc12` [Compound 427], under setting [2], the EC50 is 7.44 nM.
`CC(=O)Nc1cc(C(F)(F)F)c2nc(C(=O)NCc3ccccn3)cc(C)c2c1` [Compound 177]: the inhibition at 10 µM under setting [1] stood at 94.7%.
Regarding `Cc1cc(-c2nnc(NCC3OCCO3)o2)nc2c(C(C)(C)C)cc(OCC3CC3)cc12` [Compound 532], the EC50 (Hepatitis C virus, Huh-7, 72 h) stood at 41.2 nM.
For the compound `Cc1cccc(CNC(=O)c2cc(C)c3cc(C4CC4)cc(C(F)(F)F)c3n2)n1` [Compound 83], the inhibition at 10 µM under setting [1] was 99.4%.
The same measure, in the same setting: for `O=C(NCC1CS(=O)(=O)CCN1)c1cc(Cl)c2cc(OC(F)F)cc(C(F)(F)F)c2n1` (centres unmarked) [Compound 197] the value was 92.8%; for `Cc1cc(C(=O)NC(CO)c2ccccc2)nc2c(C(F)(F)F)cc(-c3ccccc3)cc12` (centres unmarked) [Compound 167], 87.5%.
As to `Cc1cc(-c2nnc(NCC3OCCO3)o2)nc2c(C(C)(C)C)cc(OCC(F)F)cc12` [Compound 526], the EC50 under setting [2] was determined as 1.64 nM.
On to `CC(C)(C)c1cc(C2CC2)cc2c(N)cc(C(=O)NCc3ccon3)nc12` [Compound 322], for which the EC50 under setting [2] is 5.38 nM.
On to `Cc1cc(C(=O)NCC2COCC(C)(C)N2)nc2c(C(F)(F)F)cc(C3CC3)cc12` (centres unmarked) [Compound 133], for which the inhibition at 10 µM under setting [1] was 92.4%.
As to `Cc1cc(-c2nnc(N[C@H]3CC[C@@](C)(O)CC3)o2)nc2c(C(C)(C)C)cc(OCC(F)(F)F)cc12` [Compound 497], the EC50 under setting [3] amounted to 73.7 nM.
Regarding `Cc1cc(C(=O)NCc2ccccn2)nc2c(C(F)(F)F)cc(CC(C)C)cc12` [Compound 140], the inhibition at 10 µM under setting [1] stood at 99.1%.
As to `Cc1cc(-c2nnc(NC3CC(O)(C(F)(F)F)C3)o2)nc2c(C(C)(C)C)cc(OCC(F)(F)F)cc12` (centres unmarked) [Compound 469], under setting [2], the EC50 came to 115 nM.
In the case of `CC(C)(C)c1cc(C2CC2)cc2c(NC(=O)CN)cc(-c3nnc(NC4CCCC4)o3)nc12` [Compound 360], under “Hepatitis C virus, Huh-7, 72 h”, the EC50 amounted to 44.1 nM.
As for `Nc1cc(C(=O)NC[C@@H]2CC(F)(F)CCN2)nc2c(C(F)(F)F)cc(OC(F)F)cc12` [Compound 314], the EC50 under setting [2] stood at 26.1 nM.
Same read-out and setting: the result for `CC(C)(C)c1cc(C2CC2)cc2c(N)cc(C(=O)NC[C@@H]3CC4(CN3)SCCS4)nc12` [Compound 333] reads 6.32 nM.
Consider `O=C(NCc1ccccn1)c1cc(Cl)c2cc(C3CC3)cc(OC(F)(F)F)c2n1` [Compound 233], for which the inhibition at 10 µM under setting [1] came to 100%.
As to `Cc1cc(C(=O)NC/C=C/c2ccccc2)nc2c(C(F)(F)F)cc(-c3ccccc3)cc12` [Compound 170], the inhibition at 10 µM under setting [1] worked out at 66.4%.
Still for that read-out and setting: for `Cc1cc(C(=O)NCc2cc(C#N)ccn2)nc2c(C(F)(F)F)cc(C3CC3)cc12` [Compound 110] the value was 99.9%.
Same read-out and setting: the result for `CNc1cc(C(F)(F)F)c2nc(C(=O)NCc3ccccn3)cc(C)c2c1` [Compound 181] reads 99.4%.
Take `Cc1cc(C(=O)NCc2cnccn2)nc2c(-c3ccccc3)cc(C3CC3)cc12` [Compound 549]: the EC50 under setting [2] came to 65.5 nM.
The same measure, in the same setting: the result for `Cc1cc(-c2nnc(NCC[C@H](C)O)o2)nc2c(C(C)(C)C)cc(OCC(F)(F)F)cc12` [Compound 456] reads 3.3 nM; that for `CC(=O)N1CCNC(CNC(=O)c2cc(N)c3cc(OC(F)F)cc(C(F)(F)F)c3n2)C1` (centres unmarked) [Compound 317], 9790 nM.
With `Cc1cc(-c2nnc(NCCC(C)O)s2)nc2c(C(F)(F)F)cc(C3CC3)cc12` (centres unmarked) [Compound 302], under setting [1], the inhibition at 10 µM amounted to 99.9%.
On the same count and under the same terms, the result for `Cc1cc(C(=O)NCc2ccccn2)nc2c(C(F)(F)F)cc(C#CC3CC3)cc12` [Compound 147] reads 94.1%; that for `COc1cc(C(F)(F)F)c2nc(C(=O)NCc3ccccn3)cc(C)c2c1` [Compound 182], 99.3%.
As for `Cc1cc(-c2nnc(NCC3OCCO3)o2)nc2c(C(C)(C)C)cc(OCC(F)(F)F)cc12` [Compound 448], the EC50 under setting [2] came to 1.57 nM.
For `C#Cc1cc(C(F)(F)F)c2nc(C(=O)NCc3ccccn3)cc(C)c2c1` [Compound 146], under setting [1], the inhibition at 10 µM was determined as 99.4%.
In the case of `Cc1cc(C(=O)NC[C@@H]2CC3(CCN2)OCCO3)nc2c(C(C)(C)C)cc(C3CC3)cc12` [Compound 428], the EC50 under setting [2] came to 834 nM.
Regarding `Cc1cc(-c2nnc(NCC3OCCO3)o2)nc2c(OC(F)(F)F)cc(C3CC3)cc12` [Compound 444], the EC50 under setting [2] is 5.88 nM.
Still for that read-out and setting: for `Cc1cc(-c2nnc(N[C@H]3C[S@@+]([O-])C3)o2)nc2c(C(C)(C)C)cc(OCC(F)(F)F)cc12` [Compound 507] the value was 19.1 nM.
As to `Cc1cc(-c2nnc(N[C@H]3C[C@](O)(CO)C3)o2)nc2c(C(C)(C)C)cc(C3CC3)cc12` [Compound 513], under setting [3], the EC50 worked out at 8.11 nM.

These data come from patent US20120053148A1, “INHIBITORS OF HEPATITIS C VIRUS” (GILEAD SCIENCES, INC., priority 2010, published 2012).
